In EP1222194B1, “7-ACYLAMINO-3-HETEROARYLTHIO-3-CEPHEM CARBOXYLIC ACID ANTIBIOTICS AND PRODRUGS THEREOF” (priority 1999, dated 2001):
In brackets after ≈: the same amount, converted by molar mass.

Assays:
Experiment in all cases: Broth microdilution MIC (NCCLS)
Format in all cases: cell-based
E. faecium VanA (Van^R) = settings: Enterococcus faecium, Mueller-Hinton Broth, 24 h at 35 °C
Procedure: (§1) Compounds were evaluated for antimicrobial activity against a panel of bacterial strains using a broth microdilution assay performed as recommended by the NCCLS (1). The minimum inhibitory concentration (MIC) was defined as the lowest concentration of drug which prevented the growth of the bacteria. The following 16 organisms constituted the primary panel of evaluation:
(§2) For this primary panel, the assay was performed in Mueller-Hinton Broth (MHB) with a final bacterial inoculum of 5 x 10^5 CFU/mL (from an early-log phase culture) and a final volume of 100 µL. Control drugs, including imipenem, vancomycin, Penicillin G, dicloxacillin (vs. MSSA ATCC29213 only), and new compounds were prepared at a concentration equivalent to 2-fold the desired final concentration. Dilution of compounds were prepared directly in the plates by serial 2-fold dilution using a multichannel pipette. Positive and negative growth control were included in each plate.
(§3) The bacterial inocula were prepared as follows. For each strain one isolated colony was used to inoculate a volume of 8 mL of Mueller-Hinton broth and these cultures were incubated overnight (20h) at 35 °C in a shaking incubator. At the exception of Enterococcus strains, culture were then diluted 1:10 and allowed to grow for an additional one hour at 35 °C in a shaking incubator. The inocula were prepared by diluting the early log-phase (1h) cultures 1:1000 with fresh Mueller-Hinton broth. E. faecium and E. faecalis were prepared by diluting overnight cultures 1:333 and 1:666, respectively, with fresh Mueller-Hinton broth . A volume of 50 µL of the inocula was added to each well. […] The exact inocula were determined by applying […] of 10-fold serial dilution of the bacterial suspensions on TSA. After overnight incubation at 35 °C, colony forming units were manually counted.
(§4) Microtiter plates were incubated during 24 h at 35 °C and were read using a microtiterplate reader (Molecular Devices) at 650 nm as well as by visual observation using a microtiterplate reading mirror.

E. faecium A491 (Amp^R) = settings: Enterococcus faecium, Mueller-Hinton Broth, 24 h at 35 °C
Procedure: as §1, §2, §3, §4

[1] = tested on: S. aureus ATCC 33593 (Meth^R); settings: Staphylococcus aureus, ATCC33593, Mueller-Hinton Broth, 24 h at 35 °C
Procedure: as §1, §2, §3, §4

[2] = tested on: S. haemolyticus 05 (Meth^R); settings: Staphylococcus haemolyticus, Mueller-Hinton Broth, 24 h at 35 °C
Procedure: as §1, §2, §3, §4

E. coli ATCC25992 = settings: Escherichia coli, Mueller-Hinton Broth, 24 h at 35 °C
Procedure: as §1, §2, §3, §4

E. faecalis ATCC 29212 = settings: Enterococcus faecalis, ATCC29212, Mueller-Hinton Broth, 24 h at 35 °C
Procedure: as §1, §2, §3, §4

P. aeruginosa ATCC 27853 = settings: Pseudomonas aeruginosa, ATCC27853, Mueller-Hinton Broth, 24 h at 35 °C
Procedure: as §1, §2, §3, §4

[3] = tested on: S. aureus 76 (Meth^R)(lac^+); settings: Staphylococcus aureus, Mueller-Hinton Broth, 24 h at 35 °C
Procedure: as §1, §2, §3, §4

E. faecalis VanB (Van^R) = settings: Enterococcus faecalis, Mueller-Hinton Broth, 24 h at 35 °C
Procedure: as §1, §2, §3, §4

[4] = tested on: S. aureus Spain #356 (Meth^R); settings: Staphylococcus aureus, Mueller-Hinton Broth, 24 h at 35 °C
Procedure: as §1, §2, §3, §4

S. aureus ATCC 29213 = settings: Staphylococcus aureus, ATCC29213, Mueller-Hinton Broth, 24 h at 35 °C
Procedure: as §1, §2, §3, §4

SMILES | MIC (E. faecium VanA (Van^R)) [µg/mL] | MIC (E. faecium A491 (Amp^R)) [µg/mL] | MIC [1] [µg/mL] | MIC [2] [µg/mL] | MIC (E. coli ATCC25992) [µg/mL] | MIC (E. faecalis ATCC 29212) [µg/mL] | MIC (P. aeruginosa ATCC 27853) [µg/mL] | MIC [3] [µg/mL] | MIC (E. faecalis VanB (Van^R)) [µg/mL] | MIC [4] [µg/mL] | MIC (S. aureus ATCC 29213) [µg/mL]
NCCSCc1ncccc1SC1=C(C(=O)O)N2C(=O)[C@@H](NC(=O)/C(=N\O)c3nc(N)sc3Cl)[C@H]2SC1 [Cmpd 1, (7R)-7-[(Z)-2-(2-amino-5-chlorothiazol-4-yl)-2-(hydroxyimino)acetamido]-3-[2-(2-aminoethylthiomethyl)pyrid-3-ylthio]-3-cephem-4-carboxylic acid] | 1 (≈ 1.66 µM) | 8 (≈ 13.3 µM) | 1 (≈ 1.66 µM) | 1 (≈ 1.66 µM) | 4 (≈ 6.64 µM) | 0.06 (≈ 0.0996 µM) | 32 (≈ 53.1 µM) | 1 (≈ 1.66 µM) | 0.13 (≈ 0.216 µM) | 1 (≈ 1.66 µM) | 
NCCSCc1ncccc1SC1=C(C(=O)O)N2C(=O)[C@@H](NC(=O)/C(=N\O)c3nsc(N)n3)[C@H]2SC1 [Cmpd 2, (7R)-7-[(Z)-2-(5-amino-1,2,4-thiadiazol-3-yl)-2-(hydroxyimino)acetamido]-3-[2-(2-aminoethylthiomethyl)pyrid-3-ylthio]-3-cephem-4-carboxylic acid] | 2 (≈ 3.52 µM) | > 32 | 1 (≈ 1.76 µM) | 2 (≈ 3.52 µM) | 1 (≈ 1.76 µM) | 1 (≈ 1.76 µM) | > 32 | 1 (≈ 1.76 µM) | 0.5 (≈ 0.879 µM) | 1 (≈ 1.76 µM) | 
N=C(N)NCCSCc1ncccc1SC1=C(C(=O)O)N2C(=O)[C@@H](NC(=O)/C(=N\O)c3nsc(N)n3)[C@H]2SC1 [Cmpd 2-R, (7R)-7-[(Z)-2-(5-amino-1,2,4-thiadiazol-3-yl)-2-(hydroxyimino)acetamido]-3-[2-(2-guanidinoethylthiomethyl)pyrid-3-ylthio]-3-cephem-4-carboxylic acid] | 1 (≈ 1.64 µM) | 32 (≈ 52.4 µM) | 1 (≈ 1.64 µM) | 2 (≈ 3.27 µM) | 1 (≈ 1.64 µM) | 1 (≈ 1.64 µM) | > 32 | 1 (≈ 1.64 µM) |  | 1 (≈ 1.64 µM) | 0.13 (≈ 0.213 µM)
N=C(N)NCCSCc1ncccc1SC1=C(C(=O)O)N2C(=O)[C@@H](NC(=O)/C(=N\O)c3nc(N)sc3Cl)[C@H]2SC1 [Cmpd 2-S, (7R)-7-[(Z)-2-(2-amino-5-chlorothiazol-4-yl)-2-(hydroxyimino)acetamido]-3-[2-(2-guanidinoethylthiomethyl)pyrid-3-ylthio]-3-cephem-4-carboxylic acid] | 0.5 (≈ 0.776 µM) | 4 (≈ 6.21 µM) | 0.5 (≈ 0.776 µM) | 1 (≈ 1.55 µM) | 4 (≈ 6.21 µM) | 0.06 (≈ 0.0931 µM) | > 32 | 0.5 (≈ 0.776 µM) | 0.06 (≈ 0.0931 µM) | 0.5 (≈ 0.776 µM) | 0.13 (≈ 0.202 µM)
NCCSCc1ccncc1SC1=C(C(=O)O)N2C(=O)[C@@H](NC(=O)/C(=N\O)c3nc(N)sc3Cl)[C@H]2SC1 [Cmpd 3, (7R)-7-[(Z)-2-(2-amino-5-chlorothiazol-4-yl)-2-(hydroxyimino)acetamido]-3-[4-(2-aminoethylthiomethyl)pyrid-3-ylthio]-3-cephem-4-carboxylic acid] | 2 (≈ 3.32 µM) | 32 (≈ 53.1 µM) | 1 (≈ 1.66 µM) | 2 (≈ 3.32 µM) | 4 (≈ 6.64 µM) | 0.13 (≈ 0.216 µM) | 32 (≈ 53.1 µM) | 1 (≈ 1.66 µM) | 0.5 (≈ 0.83 µM) | 1 (≈ 1.66 µM) | 0.13 (≈ 0.216 µM)
